Measured values reported in ChEMBL document CHEMBL1201862, “PubChem BioAssay data set” (2004).
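48-hour exposure; five concentrations; linearly interpolated endpoints. Here, GI50 denotes the concentration required for 50% inhibition of growth.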 The source made the active and inactive calls. Rule as the data show it: active = GI50 up to about 1.1 µM and inactive = higher.

Experiments:
Assay in all cases: NCI tumour cell line growth inhibition, 48 h
[1] = tested on: 786-0
[2] = tested on: CAKI-1
[3] = tested on: DU-145
[4] = tested on: EKVX
[5] = tested on: HCT-116
[6] = tested on: HCT-15
[7] = tested on: Hs-578T
[8] = tested on: IGROV-1
[9] = tested on: M14
[10] = tested on: MDA-MB-231
[11] = tested on: Malme-3M
[12] = tested on: NCI-H23
[13] = tested on: OVCAR-8
[14] = tested on: RXF 393
[15] = tested on: SF-295
[16] = tested on: SNB-19
[17] = tested on: SNB-75
[18] = tested on: SW-620
[19] = tested on: TK-10
[20] = tested on: UACC-62

SMILES	GI50 [1]	GI50 [2]	GI50 [3]	GI50 [4]	GI50 [5]	GI50 [6]	GI50 [7]	GI50 [8]	GI50 [9]	GI50 [10]	GI50 [11]	GI50 [12]	GI50 [13]	GI50 [14]	GI50 [15]	GI50 [16]	GI50 [17]	GI50 [18]	GI50 [19]	GI50 [20]
O=C(O)Cn1ccnc1[N+](=O)[O-]	> 100 µM (inactive)	> 100 µM (inactive)	> 100 µM (inactive)	> 100 µM (inactive)	> 100 µM (inactive)	> 100 µM	> 100 µM (inactive)	> 100 µM (inactive)	> 100 µM (inactive)	> 100 µM (inactive)	> 100 µM (inactive)	> 100 µM (inactive)	> 100 µM (inactive)	> 100 µM (inactive)	> 100 µM (inactive)	> 100 µM (inactive)	> 100 µM (inactive)	> 100 µM (inactive)	> 100 µM (inactive)	> 100 µM (inactive)
C[C@]12CC[C@H]3[C@@H](CCC4=C[C@@H](OC5OCC(OC6OC(CO)C(O)C(O)C6O)C(O)C5O)CC[C@@]43C=O)[C@@]1(O)CCC2C1=CC(=O)OC1 (stereo not given in full)	0.365 µM (active)	0.347 µM (active)	0.435 µM (active)	0.441 µM (active)	0.322 µM (active)	0.504 µM	0.522 µM (active)	0.351 µM (active)	1.21 µM (inactive)	3.02 µM (inactive)	0.59 µM (active)	0.195 µM (active)	0.931 µM (active)	0.23 µM (active)	0.638 µM (active)	3.11 µM (inactive)	1.4 µM (inactive)	0.746 µM (active)	0.681 µM (active)	1.81 µM (inactive)
Nc1nc(N)c(/N=N/c2ccc(C(=O)O)c(O)c2)c(N)n1	> 100 µM (inactive)	> 100 µM (inactive)	> 100 µM (inactive)	91.6 µM (inactive)	> 100 µM (inactive)	> 100 µM	> 100 µM (inactive)	> 100 µM (inactive)	> 100 µM (inactive)	> 100 µM (inactive)	> 100 µM (inactive)	> 100 µM (inactive)	> 100 µM (inactive)	> 100 µM (inactive)	> 100 µM (inactive)	> 100 µM (inactive)	> 100 µM (inactive)	> 100 µM (inactive)	> 100 µM (inactive)	> 100 µM (inactive)
COc1cc(N(C)C)c(OC)cc1/C=C\c1ccnc2ccccc12	4.49 µM (inactive)	6.38 µM (inactive)	3.46 µM (inactive)	2.26 µM (inactive)	3.09 µM (inactive)	0.652 µM	3.25 µM (inactive)	0.824 µM (active)	4.93 µM (inactive)	2.8 µM (inactive)	4.86 µM (inactive)	3.86 µM (inactive)	9.44 µM (inactive)	> 10 µM (inactive)	2.86 µM (inactive)	> 10 µM (inactive)	2.57 µM (inactive)	4.68 µM (inactive)	2.12 µM (inactive)	3.39 µM (inactive)
COc1ccc2c3c([nH]c2c1)CCN(CCCC(=O)c1ccc(F)cc1)C3	14.1 µM (inactive)	16 µM (inactive)	18.7 µM (inactive)	12.8 µM (inactive)	12.2 µM (inactive)	20.1 µM	6.56 µM (inactive)	18.4 µM (inactive)	15.5 µM (inactive)	15.8 µM (inactive)	13.4 µM (inactive)	19.4 µM (inactive)	15.6 µM (inactive)	14.2 µM (inactive)	15.7 µM (inactive)	14.8 µM (inactive)	12.2 µM (inactive)	17 µM (inactive)	15.5 µM (inactive)	13.8 µM (inactive)
c1csc(-c2cc(-c3ccsc3)c(-c3ccsc3)s2)c1	> 100 µM (inactive)	> 100 µM (inactive)	> 100 µM (inactive)	8.15 µM (inactive)	> 100 µM (inactive)	24 µM	> 100 µM (inactive)	> 100 µM (inactive)	> 100 µM (inactive)	> 100 µM (inactive)	> 100 µM (inactive)	> 100 µM (inactive)	> 100 µM (inactive)	> 100 µM (inactive)	> 100 µM (inactive)	> 100 µM (inactive)	> 100 µM (inactive)	> 100 µM (inactive)	> 100 µM (inactive)	> 100 µM (inactive)
Cc1cc(=O)oc2cc(OC(=O)Nc3ccccc3)ccc12	> 100 µM (inactive)	> 100 µM (inactive)	76.9 µM (inactive)	> 100 µM (inactive)	47.8 µM (inactive)	50.9 µM	64.4 µM (inactive)	69.8 µM (inactive)	> 100 µM (inactive)	> 100 µM (inactive)	> 100 µM (inactive)	69.5 µM (inactive)	53.3 µM (inactive)	92.7 µM (inactive)	> 100 µM (inactive)	> 100 µM (inactive)	> 100 µM (inactive)	62.8 µM (inactive)	> 100 µM (inactive)	41.2 µM (inactive)
CCOC(=O)CCC(NC(=O)C(N)Cc1ccc(N(CCCl)CCCl)cc1)C(=O)OCC (stereo not given)	0.475 µM (active)	0.327 µM (active)	0.249 µM (active)	2.36 µM (inactive)	0.375 µM (active)	0.538 µM	2.24 µM (inactive)	1.17 µM (inactive)	0.225 µM (active)	1.69 µM (inactive)	0.234 µM (active)	0.43 µM (active)	0.867 µM (active)	0.515 µM (active)	2.88 µM (inactive)	4.09 µM (inactive)	0.733 µM (active)	1.29 µM (inactive)	1.31 µM (inactive)	0.34 µM (active)
CCCCCCNC(=S)N/N=C(\C)c1ccccn1	< 0.0268 µM (active)	< 0.01 µM (active)	1.52 µM (inactive)	0.0176 µM (active)	< 0.01 µM (active)	< 0.01 µM	20.7 µM (inactive)	< 0.01 µM (active)	0.0337 µM (active)	0.217 µM (active)	2.65 µM (inactive)	< 0.0311 µM (active)	0.0912 µM (active)	0.0189 µM (active)	0.407 µM (active)	3.4 µM (inactive)	3.99 µM (inactive)	< 0.0322 µM (active)	0.55 µM (active)	0.182 µM (active)
CC1(C)CC2(C)CC1CC2O (stereo not given)	> 100 µM (inactive)	> 100 µM (inactive)	> 100 µM (inactive)	> 100 µM (inactive)	> 100 µM (inactive)	> 100 µM	> 100 µM (inactive)	> 100 µM (inactive)	> 100 µM (inactive)	> 100 µM (inactive)	> 100 µM (inactive)	> 100 µM (inactive)	> 100 µM (inactive)	> 100 µM (inactive)	> 100 µM (inactive)	> 100 µM (inactive)	> 100 µM (inactive)	> 100 µM (inactive)	> 100 µM (inactive)	> 100 µM (inactive)
CC1=C(C(=O)OC(C)C)C(c2ccccc2[N+](=O)[O-])C(C(=O)OC(CO[N+](=O)[O-])CO[N+](=O)[O-])=C(C)N1 (stereo not given)	3.62 µM (inactive)	3.32 µM (inactive)	5.68 µM (inactive)	2.85 µM (inactive)	2.55 µM (inactive)	3.08 µM	3.36 µM (inactive)	5.26 µM (inactive)	3.74 µM (inactive)	5.68 µM (inactive)	3.91 µM (inactive)	4.27 µM (inactive)	3.28 µM (inactive)	2.7 µM (inactive)	2.1 µM (inactive)	3.44 µM (inactive)	1.54 µM (inactive)	4.03 µM (inactive)	6.27 µM (inactive)	2.07 µM (inactive)
